The record followed here is patent EP4653437A2 (Innovo Therapeutics Inc., priority 2023, dated 2024).

The target in one experiment is T1, human 15-PGDH (Homo sapiens, UniProt P15428).
T1 construct: purchased R&D System 5660-DH
T1 sequence (P15428 1-266): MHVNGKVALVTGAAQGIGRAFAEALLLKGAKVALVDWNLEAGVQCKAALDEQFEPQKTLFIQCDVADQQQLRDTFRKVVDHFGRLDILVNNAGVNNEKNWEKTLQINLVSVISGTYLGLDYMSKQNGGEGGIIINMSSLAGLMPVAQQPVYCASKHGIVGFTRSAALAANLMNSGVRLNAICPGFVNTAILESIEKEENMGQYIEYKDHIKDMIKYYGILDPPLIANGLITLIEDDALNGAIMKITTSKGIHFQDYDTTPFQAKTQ
The experiment is described as follows: Evaluation of 15-PGDH inhibitory activity (fluorescence enzyme assay, NAD+/PGE2). The note with it: human 15-PGDH enzyme, fluorescence Vmax. Format: biochemical. The method, then: 15-PGDH inhibition activity of Example compounds was measured as follows. 6.7 ng of human 15-PGDH (R&D System# 5660-DH) enzyme (10 µL) was added to a black 96 well plate, 60 µL of buffer (50 mM Tris-HCl, pH 7.5, 0.01% Tween 20) was added, and 10 µL of 200 µM β-Nicotinamide adenine dinucleotide sodium salt (Sigma, Cat# N0632-5G) was added. 10 µL of (10x) compound solution in DMSO was added and reacted for 10 minutes at room temperature.

A further experiment deals with A549 cells. The experiment can be described thus: Measurement of PGE2-increasing activity in A549 cells (IL-1β stimulated, PGE2 quantified in supernatant). Format: cell-based. The note with it: Homo sapiens, 24 h; concentration of 1 µM of each compound; IL-1β treated A549 cells; read-out: Increased PGE2 production in A549 cells. The method, boiled down: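 PGE2 secreted into the supernatant was measured by immunoassay 24 h after treatment. Before treatment, A549 cells were cultured 24 h in 10% FBS F12K, washed, and placed in serum-free medium containing compound (DMSO 0.1% final) plus or minus IL-1β, incubated at 37 °C, 5% CO2.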

As for `Cc1nc(-c2ccc(-c3cccc4c(C(=O)N5CCCCC5)cnn34)c(F)c2)no1` [Example 296, [7-[2-fluoro-4-(5-methyl-1,2,4-oxadiazol-3-yl)phenyl]pyrazolo[1,5-a]pyridin-3-yl]-(1-piperidyl)methanone], the IC50 against human 15-PGDH is ≤ 100 nM. Also, the fold induction at 1 µM in the experiment on A549 cells is > 1.5.

Consider `O=C(c1cnn2c(-c3ccc4cn[nH]c(=O)c4c3)cccc12)N1CCCCC1` [Example 224, 7-(3-(piperidine-1-carbonyl)pyrazolo[1,5-a]pyridin-7-yl)phthalazin-1(2H)-one], for which the IC50 against human 15-PGDH was ≤ 100 nM. The fold induction at 1 µM with A549 cells was > 1.5.

With `N#Cc1ncc(-c2cccc3c(C(=O)N4CCCCC4)cnn23)cc1F` [Example 205, 3-fluoro-5-[3-(piperidine-1-carbonyl)pyrazolo[1,5-a]pyridin-7-yl]pyridine-2-carbonitrile], the IC50 against human 15-PGDH was ≤ 100 nM. Further, the fold induction at 1 µM in the experiment with A549 cells was > 1.5.

As for `O=C(c1cccc(-c2cccc3c(C(=O)N4CCCCC4)cnn23)c1)N1CCNCC1` [Example 34, piperazin-1-yl(3-(3-(piperidine-1-carbonyl)pyrazolo[1,5-a]pyridin-7-yl)phenyl)methanone], the IC50 on human 15-PGDH was ≤ 100 nM. Moreover, the fold induction at 1 µM in the experiment with A549 cells is > 1.5.

Take `O=C(NC1CNC1)c1cncc(-c2cccc3c(C(=O)N4CCCCC4)cnn23)c1` [Example 200, N-(azetidin-3-yl)-5-(3-(piperidine-1-carbonyl)pyrazolo[1,5-a]pyridin-7-yl)nicotinamide]: the IC50 on human 15-PGDH is ≤ 100 nM. The fold induction at 1 µM with A549 cells was > 1.5.

Consider `CN1CCc2ncc(-c3cccc4c(C(=O)N5CCCCC5)cnn34)cc2C1=O` [Example 199, 6-methyl-3-(3-(piperidine-1-carbonyl)pyrazolo[1,5-a]pyridin-7-yl)-7,8-dihydro-1,6-naphthyridin-5(6H)-one], for which, at human 15-PGDH, the IC50 is ≤ 100 nM. Also, the fold induction at 1 µM in the experiment on A549 cells is > 1.5.

With `CC1c2cc(-c3cccc4c(C(=O)N5CCCCC5)cnn34)cnc2C(=O)N1C` (stereo not shown) [Example 280, 5,6-dimethyl-3-(3-(piperidine-1-carbonyl)pyrazolo[1,5-a]pyridin-7-yl)-5,6-dihydro-7H-pyrrolo[3,4-b]pyridin-7-one], the IC50 against human 15-PGDH was ≤ 100 nM. In addition, the fold induction at 1 µM in the experiment with A549 cells is > 1.5.

For `O=C(c1cnn2c(-c3ccc(F)nc3)cccc12)N1CCCC(C(F)(F)F)C1` (stereo not shown) [Example 338, (7-(6-fluoropyridin-3-yl)pyrazolo[1,5-a]pyridin-3-yl)(3-(trifluoromethyl)piperidin-1-yl)methanone], the IC50 on human 15-PGDH was ≤ 100 nM. For the same compound, the fold induction at 1 µM in the experiment with A549 cells was > 1.5.

On to `Nc1n[nH]c2ccc(-c3cccc4c(C(=O)N5CCCCC5)cnn34)cc12` [Example 260, [7-(3-amino-1H-indazol-5-yl)pyrazolo[1,5-a]pyridin-3-yl]-(1-piperidyl)methanone], for which the IC50 at human 15-PGDH was ≤ 100 nM. Also, the fold induction at 1 µM in the experiment on A549 cells was > 1.5.

Regarding `O=C1NCCc2ncc(-c3cccc4c(C(=O)N5CCCCC5)cnn34)cc21` [Example 195, 3-(3-(piperidine-1-carbonyl)pyrazolo[1,5-a]pyridin-7-yl)-7,8-dihydro-1,6-naphthyridin-5(6H)-one], the concentration for half-maximal inhibition (IC50) against human 15-PGDH was ≤ 100 nM. Besides, the fold induction at 1 µM with A549 cells is > 1.5.

For the compound `Cn1nccc1-c1cnc(F)c(-c2cccc3c(C(=O)N4CCCCC4)cnn23)c1` [Example 325, (7-(2-fluoro-5-(1-methyl-1H-pyrazol-5-yl)pyridin-3-yl)pyrazolo[1,5-a]pyridin-3-yl)(piperidin-1-yl)methanone], the IC50 on human 15-PGDH is ≤ 100 nM. Moreover, the fold induction at 1 µM with A549 cells is > 1.5.

Turning to `Cc1nc(-c2cc(-c3cccc4c(C(=O)N5CCCCC5)cnn34)cc([N+](=O)[O-])c2)no1` [Example 330, (7-(3-(5-methyl-1,2,4-oxadiazol-3-yl)-5-nitrophenyl)pyrazolo[1,5-a]pyridin-3-yl)(piperidin-1-yl)methanone], the IC50 on human 15-PGDH is ≤ 100 nM. For the same compound, the fold induction at 1 µM with A549 cells is > 1.5.

As for `CC(C)Nc1ccc(-c2cccc3c(C(=O)N4CCCCC4)cnn23)cn1` [Example 109, (7-(6-(isopropylamino)pyridin-3-yl)pyrazolo[1,5-a]pyridin-3-yl)(piperidin-1-yl)methanone], at human 15-PGDH, the 50% inhibitory concentration (IC50) is ≤ 100 nM. The fold induction at 1 µM in the experiment with A549 cells is > 1.5.

`CN(C)CC(=O)Nc1ccc(-c2cccc3c(C(=O)N4CCCCC4)cnn23)cn1` [Example 104, 2-(dimethylamino)-N-(5-(3-(piperidine-1-carbonyl)pyrazolo[1,5-a]pyridin-7-yl)pyridin-2-yl)acetamide]: on human 15-PGDH, the half-inhibitory concentration (IC50) was ≤ 100 nM. Also, in the experiment with A549 cells, the fold induction at 1 µM is > 1.5.

`COCCC(=O)Nc1cccc(-c2cccc3c(C(=O)N4CCCCC4)cnn23)c1` [Example 91, 3-methoxy-N-(3-(3-(piperidine-1-carbonyl)pyrazolo[1,5-a]pyridin-7-yl)phenyl)propanamide]: the IC50 against human 15-PGDH is ≤ 100 nM. Moreover, in the experiment with A549 cells, the fold induction at 1 µM is > 1.5.

In the case of `CN1CCC(NC(=O)c2ccc(-c3cccc4c(C(=O)N5CCCCC5)cnn34)cn2)CC1` [Example 81, N-(1-methylpiperidin-4-yl)-5-(3-(piperidine-1-carbonyl)pyrazolo [1,5-a]pyridin-7-yl)picolinamide], the IC50 at human 15-PGDH was ≤ 100 nM. Further, the fold induction at 1 µM with A549 cells was > 1.5.

For `N#Cc1cc(F)cc(-c2cccc3c(C(=O)N4CCCCC4)cnn23)c1` [Example 291, 3-fluoro-5-(3-(piperidine-1-carbonyl)pyrazolo[1,5-a]pyridin-7-yl)benzonitrile], the IC50 at human 15-PGDH is ≤ 100 nM. In addition, the fold induction at 1 µM in the experiment with A549 cells was > 1.5.

As to `O=C(c1cnn2c(-c3cnc4ccccc4c3)cccc12)N1CCCCC1` [Example 130, piperidin-1-yl(7-(quinolin-3-yl)pyrazolo[1,5-a]pyridin-3-yl)methanone], the IC50 at human 15-PGDH is ≤ 100 nM. Also, the fold induction at 1 µM in the experiment on A549 cells is > 1.5.

Consider `O=C(NCc1ccon1)c1ccc(-c2cccc3c(C(=O)N4CCCCC4)cnn23)cn1` [Example 89, N-(isoxazol-3-ylmethyl)-5-(3-(piperidine-1-carbonyl)pyrazolo[1,5-a]pyridin-7-yl)picolinamide], for which, at human 15-PGDH, the IC50 is ≤ 100 nM. In the experiment on A549 cells, the fold induction at 1 µM is > 1.5.

On to `O=C(c1cnn2c(-c3ccc([N+](=O)[O-])nc3)cccc12)N1CCCCC1` [Example 16, (7-(6-nitropyridin-3-yl)pyrazolo[1,5-a]pyridin-3-yl)(piperidin-1-yl)methanone], for which the IC50 on human 15-PGDH was ≤ 100 nM. Moreover, the fold induction at 1 µM with A549 cells was > 1.5.

On to `O=C(Cc1cncc(F)c1)Nc1cncc(-c2cccc3c(C(=O)N4CCCCC4)cnn23)c1` [Example 402, 2-(5-fluoropyridin-3-yl)-N-(5-(3-(piperidine-1-carbonyl)pyrazolo[1,5-a]pyridin-7-yl)pyridin-3-yl)acetamide], for which the IC50 against human 15-PGDH was ≤ 100 nM. The fold induction at 1 µM in the experiment on A549 cells is > 1.5.

As for `Cc1noc(C)c1-c1ccc(-c2cccc3c(C(=O)N4CCCCC4)cnn23)cc1` [Example 324, [7-[4-(3,5-dimethylisoxazol-4-yl)phenyl]pyrazolo[1,5-a]pyridin-3-yl]-(1-piperidyl)methanone], the IC50 against human 15-PGDH is ≤ 100 nM. Further, the fold induction at 1 µM in the experiment with A549 cells was > 1.5.

On to `O=C(Cc1cccnc1)Nc1ccc(-c2cccc3c(C(=O)N4CCCCC4)cnn23)cc1` [Example 274, N-(4-(3-(piperidine-1-carbonyl)pyrazolo[1,5-a]pyridin-7-yl)phenyl)-2-(pyridin-3-yl)acetamide], for which, at human 15-PGDH, the half-inhibitory concentration (IC50) was ≤ 100 nM. In the experiment with A549 cells, the fold induction at 1 µM was > 1.5.

One may read the IC50 as the concentration needed to halve the response being measured. Higher therefore signals weaker potency in that assay.
